# According to patent US8742116B2, “Cycloalkylamine substituted isoquinolone derivatives” (Sanofi, priority 2006, dated 2014):
# Target: T1, Active human recombinant ROCK II (N-terminal His6-tagged recombinant human ROCK-II residues 11-552) (Homo sapiens, UniProt O75116)
# T1 construct: recombinant human ROCK-II residues 11-552; His6 (N); purchased Upstate Ltd., Dundee, UK
# Assay: Determination of Rho Kinase Inhibition (Caliper peptide phosphorylation assay)
# Type: biochemical
# Conditions: Fluorescein-AKRRRLSSLRA-COOH substrate and ATP, 60 min incubation at 32° C., respective form (salt or free base) obtained as in the examples
# Protocol: Determination of Rho Kinase Inhibition
# To measure Rho-kinase inhibition, IC50 values were determined according to the following protocol:
# Active human recombinant ROCK II (N-terminal His6-tagged recombinant human ROCK-II residues 11-552) was purchased from Upstate Ltd., Dundee, UK. The peptide substrate, Fluorescein-AKRRRLSSLRA-COOH, was obtained from JPT Peptide Technologies, Berlin, Germany. Adenosine-5′-triphosphate (ATP), bovine serum albumine (BSA), dimethylsulphoxide (DMSO), 4-(2-hydroxyethyl)piperazine-1-ethanesulfonic acid (Hepes), Brij-35 and dithiothreitol (DTT) were purchased from Sigma-Aldrich, Munich, Germany. Tris(hydroxymethyl)-aminomethane (Tris), magnesium chloride, NaOH, 1 M HCl and EDTA were obtained from Merck Biosciences, Darmstadt, Germany. “Complete” protease inhibitor was from Roche Diagnostics, Mannheim, Germany.
# Test compounds were diluted to the appropriate concentrations in buffer 1 (25 mM Tris-HCl, pH 7.4, 5 mM MgCl2, 2 mM DTT, 0.02% (w/v) BSA and 3% DMSO). The ROCK II enzyme was diluted to a concentration of 100 ng/ml in buffer 2 (25 mM Tris-HCl, pH 7.4, 5 mM MgCl2, 2 mM DTT and 0.02% (w/v) BSA). The peptide substrate and ATP were diluted to concentrations of 3 μM and 120 μM, respectively, in the buffer 2. 2 μl of the compound solution were mixed with 2 μl of the diluted enzyme in a 384-well small volume microtiter plate (Greiner, Bio-One, Frickenhausen, Germany), and the kinase reaction was initiated by addition of 2 μl of the solution containing peptide substrate and ATP. After 60 min incubation at 32° C., the reaction was stopped by addition of 20 μl of a solution containing 100 mM Hepes-NaOH, pH 7.4, 0.015% (v/v) Brij-35, 45 mM EDTA and 0.227% chip coating reagent 1 (Caliper Lifescience Inc, Hopkinton, Mass.). Phosphorylation of the substrate peptide was then detected on a Caliper 3000 instrument essentially as described by Pommereau et al. (J. Biomol. Screening 2004, 9(5), 409-416). Separation conditions were as follows: Pressure—1.3 psi, upstream voltage—1562 V, downstream voltage—500 V, sample sip time 200 ms. Positive controls (buffer 1 instead of compound) and negative controls (buffer 1 instead of compound and buffer 2 instead of ROCK II) were run in parallel on each plate.
# The following products/compounds were tested in said assay by using the respective form (salt or free base) obtained as in the examples described above and the following activities were measured.
# T1 sequence (O75116 11-552): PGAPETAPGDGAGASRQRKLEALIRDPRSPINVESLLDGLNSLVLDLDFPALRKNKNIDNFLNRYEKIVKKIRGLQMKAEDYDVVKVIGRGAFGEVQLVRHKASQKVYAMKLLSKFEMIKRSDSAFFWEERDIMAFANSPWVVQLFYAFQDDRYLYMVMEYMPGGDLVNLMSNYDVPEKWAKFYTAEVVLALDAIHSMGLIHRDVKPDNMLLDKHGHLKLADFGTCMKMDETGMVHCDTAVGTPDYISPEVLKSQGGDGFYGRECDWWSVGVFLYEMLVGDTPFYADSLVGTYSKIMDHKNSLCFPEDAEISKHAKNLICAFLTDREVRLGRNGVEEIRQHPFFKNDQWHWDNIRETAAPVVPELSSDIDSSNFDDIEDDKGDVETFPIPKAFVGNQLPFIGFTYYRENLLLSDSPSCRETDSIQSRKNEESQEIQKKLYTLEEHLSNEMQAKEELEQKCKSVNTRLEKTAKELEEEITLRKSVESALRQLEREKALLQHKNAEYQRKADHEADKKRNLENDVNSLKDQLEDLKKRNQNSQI
row,IC50 [nM],SMILES
1,≤ 1000,"NC(=O)C1CCN(C2CCC(Oc3cc4cc[nH]c(=O)c4cc3Cl)CC2)CC1 (mixture of isomers) [Compound 15, 1-[4-(7-Chloro-1-oxo-1,2-dihydro-isoquinolin-6-yloxy)-cyclohexyl]-piperidine-4-carboxylic acid amide]"
2,≤ 1000,"O=c1[nH]ccc2cc(OC3CCC(N4CCCCC4)CC3)c(Cl)cc12 (mixture of isomers) [Compound 16, 7-Chloro-6-(4-piperidin-1-yl-cyclohexyloxy)-2H-isoquinolin-1-one]"
3,≤ 1000,"O=c1[nH]ccc2cc(OC3CCC(N4CCOCC4)CC3)c(Cl)cc12 (mixture of isomers) [Compound 18, 7-Chloro-6-(4-morpholin-4-yl-cyclohexyloxy)-2H-isoquinolin-1-one]"
4,≤ 1000,"Cc1cc2c(=O)[nH]ccc2cc1O[C@@H]1CCC[C@H](N)CC1 (relative stereo) [Compound 47, 6-(cis-4-Amino-cycloheptyloxy)-7-methyl-2H-isoquinolin-1-one]"
5,≤ 1000,"N[C@H]1CCC[C@@H](Oc2cc3cc[nH]c(=O)c3cc2Cl)CC1 (relative stereo) [Compound 48, 7-Chloro-6-(cis-4-Amino-cycloheptyloxy)-2H-isoquinolin-1-one]"
6,≤ 1000,"CCC[C@]1(N)CCC[C@@H](Oc2cc3cc[nH]c(=O)c3cc2Cl)CCC1 (single isomer, unassigned) [Compound 66, 6-(cis-5-Amino-5-propyl-cyclooctyloxy)-7-chloro-2H-isoquinolin-1-one]"
7,≤ 1000,"CCC[C@]1(N)CCC[C@H](Oc2cc3cc[nH]c(=O)c3cc2Cl)CCC1 (single isomer, unassigned) [Compound 67, 6-(trans-5-amino-5-propyl-cyclooctyloxy)-7-chloro-2H-isoquinolin-1-one]"
8,≤ 1000,"O=c1[nH]ccc2cc(O[C@H]3CC[C@H](N4CCOCC4)CC3)c(Cl)cc12 [Compound 17, 7-Chloro-6-(4-morpholin-4-yl-cyclohexyloxy)-2H-isoquinolin-1-one]"
9,≤ 1000,"O=c1[nH]ccc2cc(O[C@H]3CC[C@H](N4CCCC4)CC3)c(Cl)cc12 [Compound 19, 7-Chloro-6-(4-pyrrolidin-1-yl-cyclohexyloxy)-2H-isoquinolin-1-one]"
10,≤ 1000,"O=c1[nH]ccc2cc(O[C@H]3CC[C@@H](N4CCCC4)CC3)c(Cl)cc12 [Compound 20, 7-Chloro-6-(4-pyrrolidin-1-yl-cyclohexyloxy)-2H-isoquinolin-1-one]"
11,≤ 1000,"CN1CCN([C@H]2CC[C@H](Oc3cc4cc[nH]c(=O)c4cc3Cl)CC2)CC1 [Compound 21, 7-Chloro-6-[4-(4-methyl-piperazin-1-yl)-cyclohexyloxy]-2H-isoquinolin-1-one]"
12,≤ 1000,"CN1CCN([C@H]2CC[C@@H](Oc3cc4cc[nH]c(=O)c4cc3Cl)CC2)CC1 [Compound 22, 7-Chloro-6-[4-(4-methyl-piperazin-1-yl)-cyclohexyloxy]-2H-isoquinolin-1-one]"
13,≤ 1000,"O=C(O)CN[C@H]1CC[C@@H](Oc2cc3cc[nH]c(=O)c3cc2Cl)CC1 [Compound 24, [4-(7-Chloro-1-oxo-1,2-dihydro-isoquinolin-6-yloxy)-cis-cyclohexylamino]-acetic acid]"
14,1000 to 10000,"Cc1cc2c(=O)[nH]ccc2cc1O[C@H]1CC[C@H](NC(=O)CCC2CCNCC2)CC1 [Compound 28, N-[4-(7-Methyl-1-oxo-1,2-dihydro-isoquinolin-6-yloxy)-trans-cyclohexyl]-3-piperidin-4-yl-propionamide]"
15,1000 to 10000,"Cc1cc2c(=O)[nH]ccc2cc1O[C@H]1CC[C@H](NC(=O)CC2CCNCC2)CC1 [Compound 29, N-[4-(7-Methyl-1-oxo-1,2-dihydro-isoquinolin-6-yloxy)-trans-cyclohexyl]-2-piperidin-4-yl-acetamide]"
16,≤ 1000,"O=C(CCC1CCNCC1)N[C@H]1CC[C@@H](Oc2cc3cc[nH]c(=O)c3cc2Cl)CC1 [Compound 30, N-[4-(7-Chloro-1-oxo-1,2-dihydro-isoquinolin-6-yloxy)-cis-cyclohexyl]-3-piperidin-4-yl-propionamide]"
17,≤ 1000,"O=C(CC1CCNCC1)N[C@H]1CC[C@@H](Oc2cc3cc[nH]c(=O)c3cc2Cl)CC1 [Compound 31, N-[4-(7-Chloro-1-oxo-1,2-dihydro-isoquinolin-6-yloxy)-cis-cyclohexyl]-2-piperidin-4-yl-acetamide]"
18,≤ 1000,"N[C@H]1CC[C@H](Oc2cc3cc[nH]c(=O)c3cc2Cl)C1 [Compound 44, 6-((1S,3S)-3-Amino-cyclopentyloxy)-7-chloro-2H-isoquinolin-1-one]"
19,≤ 1000,"N[C@@H]1CC[C@H](Oc2ccc3c(=O)[nH]ccc3c2)C1 [Compound 45, 6-((1S,3R)-3-Amino-cyclopentyloxy)-2H-isoquinolin-1-one]"
20,≤ 1000,"N[C@H]1C[C@H](COc2cc3cc[nH]c(=O)c3cc2Cl)C1 [Compound 56, trans-6-(3-Amino-cyclobutylmethoxy)-7-chloro-2H-isoquinolin-1-one]"

row,SMILES,IC50 [nM]
1,"NC1CC(Oc2cc3cc[nH]c(=O)c3cc2Cl)C1 (mixture of isomers) [Compound 54, 6-(3-Amino-cyclobutoxy)-7-chloro-2H-isoquinolin-1-one]",≤ 1000
